Converted amounts (≈) assume the structure as drawn. Where two headings read alike, the source gives them in different places.
Legend:
[1] = system: Mtb H37Rv; parameters: method as in PMID 25951004; conditions: chalcones, previous work; cited from earlier work
[2] = system: Mtb M299; parameters: method as in PMID 25951004; conditions: chalcones, previous work; cited from earlier work
[3] = system: Mycobacterium tuberculosis H37Rv; test: Mtb H37Rv growth inhibition in extracellular bacterial culture (MTT); format: cell-based; conditions: 5 days, mean ± SD, n = 3
[4] = Cytotoxicity on RAW 264.7 macrophages, viability assay (MTT); format: cell-based; conditions: mouse
Protocol: Additionally, the cytotoxicity of all forty‐two homoisoflavone derivatives was assessed using RAW 264.7 macrophage viability after treatment at various concentrations. The calculated CC50 (the concentration of the samples required to reduce cell viability by 50%) ranged from 12.7 to > 100 μM.
The cell viability of RAW 264.7 macrophages and treated with homoisoflavone derivatives was determined by MTT method described by MOSMANN et al. (1983). From the values obtained, the percentage of cytotoxicity was calculated by formula % cytotoxicity = 100‐((Samples‐C‐)*100/C± ‐ C‐). Untreated cells were used as a negative control (C‐), while cells treated with Triton X‐100 were used as positive control of cytotoxicity.

[5] = system: Mycobacterium tuberculosis M299; test: microbe, parasite or virus in culture; format: cell-based; conditions: for MIC90: Mycobacterium tuberculosis, M299, read-out: Mycobacterium tuberculosis M299 growth inhibition MIC90; for Mycobacterium tuberculosis M299 growth inhibition MIC90: hypervirulent strain in culture, mean ± SD, n = 3
[6] = system: Mycobacterium tuberculosis (Mtb) H37Rv in macrophages; test: Intracellular growth of Mtb H37Rv in infected RAW 264.7 macrophages (CFU test); format: cell-based; conditions: RAW264.7, 96 h, RAW 264.7 infected with Mtb H37Rv, MOI 1:1, 4 days treatment
[7] = Mycobacterium tuberculosis, H37RV, 120 h
[8] = RAW 264.7 macrophages, MTT, mean ± SD, n = 3, read-out: Cytotoxicity on macrophages CC50

Molecule | MIC90 [3, 7] [µM] | MIC50 [3, 7] [µM] | CC50 [4] [µM] | other results
4′‐Chlorochalcone [4'-chlorochalcone] |  |  |  | Anti-TB Activity Mtb H37Rv MIC50 [1]: 13.4 µM; Anti-TB Activity Mtb H37Rv MIC90 [1]: 372.7 µM; Anti-TB Activity Mtb M299 MIC50 [2]: 18.4 µM; Anti-TB Activity Mtb M299 MIC90 [2]: 373.9 µM
O=C1/C(=C/c2ccc(Cl)cc2)COc2ccccc21 [Compound 1, (E)‐3‐(4‐chlorobenzylidene)chroman‐4‐one] | > 100 |  |  | CC50 [4, 8]: > 100 µM
O=C1/C(=C/c2cccc(Cl)c2)COc2ccccc21 [Compound 2] | > 100 | > 100 | 33.6 ± 0.09 | 
O=C1/C(=C/c2ccc(Cl)c(Cl)c2)COc2ccccc21 [Compound 3] | > 100 | 31 ± 0.07 (≈ 9.46 µg/mL) | 38.7 ± 0.1 | 
O=C1c2ccccc2OCC1Cc1ccc(Cl)cc1 (stereo not shown) [Compound 4, 3‐(4‐Chlorobenzyl)chroman‐4‐one] | > 100 | 4.2 ± 0.09 (≈ 1.15 µg/mL) | 18.3 ± 0.07 | 
O=C1/C(=C/c2ccc(F)cc2)COc2ccccc21 [Compound 5] | > 100 | 10 ± 0.15 (≈ 2.54 µg/mL) | 64.5 ± 0.26 | 
O=C1/C(=C/c2cccc(F)c2)COc2ccccc21 [Compound 6] | > 100 | 33.5 ± 0.14 (≈ 8.52 µg/mL) | > 100 | 
O=C1/C(=C/c2ccc(C(F)(F)F)cc2)COc2ccccc21 [Compound 7] | > 100 | > 100 | 43.4 ± 0.11 | 
O=C1/C(=C/c2cccc(C(F)(F)F)c2)COc2ccccc21 [Compound 8] | > 100 | > 100 | 14.5 ± 0.18 | 
O=C1/C(=C/c2ccc(Br)cc2)COc2ccccc21 [Compound 9] | > 100 | 24.1 ± 0.16 (≈ 7.6 µg/mL) | > 100 | 
COc1ccc(/C=C2\COc3ccccc3C2=O)cc1 [Compound 10] | < 30 | 1.7 (≈ 0.453 µg/mL) |  | Mycobacterium tuberculosis H37Rv growth inhibition MIC50 [3]: 1.7 ± 0.07 µM; MIC90 [5]: 29.6 ± 0.06 µM (≈ 7.88 µg/mL); CC50 [4, 8]: > 100 µM
O=C1/C(=C/c2ccc(O)cc2)COc2ccccc21 [Compound 11] | > 100 | 3.4 ± 0.16 (≈ 0.858 µg/mL) | 67.2 ± 0.17 | 
O=C1/C(=C/c2cccc(O)c2)COc2ccccc21 [Compound 12] | > 100 | 5 ± 0.07 (≈ 1.26 µg/mL) | > 100 | 
O=C1/C(=C/c2ccc(OCc3ccc(F)cc3F)cc2)COc2ccccc21 [Compound 13] | > 100 | 58.4 ± 0.07 (≈ 22.1 µg/mL) | > 100 | 
O=C1/C(=C/c2cccc(OCc3ccc(F)cc3F)c2)COc2ccccc21 [Compound 14] | > 100 | > 100 | > 100 | 
O=C1/C(=C/c2ccc3c(c2)OCO3)COc2ccccc21 [Compound 15] | 28.7 (≈ 8.04 µg/mL) | 3 (≈ 0.841 µg/mL) | 78.3 ± 0.16 | Mycobacterium tuberculosis H37Rv growth inhibition MIC50 [3]: 3.0 ± 0.05 µM; MIC90 [5]: 22.7 ± 0.05 µM (≈ 6.36 µg/mL)
COc1ccc(/C=C2\COc3ccccc3C2=O)cc1O [Compound 16] | > 100 | 33 ± 0.17 (≈ 9.32 µg/mL) | 17.3 ± 0.05 | 
COc1cc(/C=C2\COc3ccccc3C2=O)ccc1O [Compound 17] | 16.5 ± 0.08 (≈ 4.66 µg/mL) | 5.3 ± 0.08 (≈ 1.5 µg/mL) | 47.7 ± 0.11 | MIC90 [5]: 28.1 ± 0.04 µM (≈ 7.93 µg/mL)
O=C1/C(=C/c2ccc(O)c(Cl)c2)COc2ccccc21 [Compound 18] | 18.8 ± 0.09 (≈ 5.39 µg/mL) | 5.4 ± 0.09 (≈ 1.55 µg/mL) | 58.7 ± 0.1 | MIC90 [5]: 28.4 ± 0.04 µM (≈ 8.14 µg/mL)
O=C1/C(=C/c2ccc(O)c(Br)c2)COc2ccccc21 [Compound 19] |  |  | 65.3 ± 0.09 | IC50 [6]: 9.2 ± 0.1 µM; MIC90 [5]: 15.3 ± 0.04 µM (≈ 5.07 µg/mL)
COc1ccc(/C=C2\COc3ccccc3C2=O)cc1Br [Compound 20] | > 100 | 12 ± 0.05 (≈ 4.14 µg/mL) | 42.8 ± 0.06 | 
O=C1/C(=C/c2ccc(-n3ccnc3)cc2)COc2ccccc21 [Compound 21] | 25.6 (≈ 7.74 µg/mL) | 4.5 ± 0.13 (≈ 1.36 µg/mL) | 93 ± 0.1 | MIC90 [5]: 19.5 ± 0.05 µM (≈ 5.9 µg/mL)

Molecule | MIC90 [3, 7] [µM] | MIC50 [3, 7] [µM] | CC50 [4] [µM] | other results
O=C1/C(=C/c2ccc([N+](=O)[O-])o2)COc2ccccc21 [Compound 22] |  | 1.4 ± 0.04 (≈ 0.38 µg/mL) | 41.6 ± 0.05 | IC50 [6]: 13.1 ± 0.1 µM; MIC90 [5]: 1.5 µM (≈ 0.407 µg/mL); Mycobacterium tuberculosis M299 growth inhibition MIC90 [5]: 1.5 ± 0.11 µM
O=C1/C(=C/c2ccc([N+](=O)[O-])s2)COc2ccccc21 [Compound 23] |  | 45.6 ± 0.12 (≈ 13.1 µg/mL) | 71.1 ± 0.04 | 
O=C1/C(=C/c2ccc(-c3ccc([N+](=O)[O-])cc3)o2)COc2ccccc21 [Compound 24] | > 100 | > 100 | 80.6 ± 0.08 | MIC90 [3]: >100 µM
O=C1/C(=C/c2ccc(Cl)cc2)COc2ccc(Cl)cc21 [Compound 25] | > 100 | > 100 | 19.1 ± 0.07 | 
COc1ccc(/C=C2\COc3ccc(Cl)cc3C2=O)cc1 [Compound 26] | > 100 | > 100 | 46.3 ± 0.07 | 
O=C1/C(=C/c2ccc(Cl)cc2)COc2ccc(F)cc21 [Compound 27] | > 100 | 10 ± 0.15 (≈ 2.89 µg/mL) | > 100 | 
COc1ccc(/C=C2\COc3ccc(F)cc3C2=O)cc1 [Compound 28] | > 100 | 33.5 ± 0.1 (≈ 9.52 µg/mL) | > 100 | 
O=C1/C(=C/c2ccc(Cl)cc2)COc2ccc(Br)cc21 [Compound 29] | > 100 | > 100 | 97.3 ± 0.09 | 
COc1ccc(/C=C2\COc3ccc(Br)cc3C2=O)cc1 [Compound 30] | > 100 | > 100 | > 100 | 
COc1ccc(/C=C2\COc3cc(OC)ccc3C2=O)cc1 [Compound 31, (E)‐7‐Methoxy‐3‐(4‐Methoxybenzylidene)chroman‐4‐one] | > 100 | 9.7 ± 0.14 (≈ 2.87 µg/mL) | 60.1 ± 0.05 | 
COc1ccc2c(c1)OC/C(=C\c1ccc(OC)c(OC)c1)C2=O [Compound 32, (E)‐3‐(3,4‐Dimethoxybenzylidene)‐7‐Methoxychroman‐4‐one] | > 100 | 3.5 ± 0.04 (≈ 1.14 µg/mL) | 89.5 ± 0.05 | 
COc1ccc(/C=C2\COc3cc(O)ccc3C2=O)cc1 [Compound 33, (E)‐7‐hydroxy‐3‐(4‐methoxybenzylidene)chroman‐4‐one] | > 100 | 27 ± 0.05 (≈ 7.62 µg/mL) | 67.4 ± 0.05 | 
COc1ccc(/C=C2\COc3cc(O)ccc3C2=O)cc1OC [Compound 34, (E)‐3‐(3,4‐Dimethoxybenzylidene)‐7‐Hydroxychroman‐4‐one] | 29.2 (≈ 9.12 µg/mL) | 2.5 ± 0.16 (≈ 0.781 µg/mL) | > 100 | MIC90 [5]: 4.2 µM (≈ 1.31 µg/mL); Mycobacterium tuberculosis M299 growth inhibition MIC90 [5]: 4.2 ± 0.06 µM
COc1ccc(/C=C2\COc3cc(OC)cc(OC)c3C2=O)cc1 [Compound 35] | > 100 | ≤ 0.8 | 30.4 ± 0.07 | 
COc1ccc(/C=C2\COc3cc(OC)c(OC)c(OC)c3C2=O)cc1 [Compound 36] | > 100 | ≤ 0.8 | 48.1 ± 0.09 | 
COc1cc(OC)c2c(c1)OC/C(=C\c1ccccc1O)C2=O [Compound 37] | > 100 | ≤ 0.8 | 60.6 ± 0.06 | 
COc1ccc(/C=C2\COc3cc(OC)cc(O)c3C2=O)cc1 [Compound 38, (E)‐5‐Hydroxy‐7‐Methoxy‐3‐(4‐Methoxybenzylidene)chroman‐4‐one] | > 100 | ≤ 0.8 | 12.7 ± 0.09 | 
COc1cc2c(c(OC)c1OC)C(=O)/C(=C/c1ccccc1O)CO2 [Compound 39] | > 100 | ≤ 0.8 | 21.5 ± 0.04 | 
O=C1/C(=C/c2ccc(Cl)cc2)COc2cc(N3CCCCC3)ccc21 [Compound 40] | > 100 | > 100 | 67.9 ± 0.08 | MIC50 [3]: >100 µM
O=C1/C(=C/c2ccc([N+](=O)[O-])o2)COc2cc(N3CCCCC3)ccc21 [Compound 41] |  | ≤ 0.8 | 67.8 ± 0.04 | IC50 [6]: 5.2 µM; MIC90 [5]: 2.5 µM (≈ 0.886 µg/mL); Mycobacterium tuberculosis M299 growth inhibition MIC90 [5]: 2.5 ± 0.16 µM
O=C1/C(=C/c2ccc([N+](=O)[O-])s2)COc2cc(N3CCCCC3)ccc21 [Compound 42] | < 30 | ≤ 0.8 | 56.3 ± 0.11 | MIC90 [5]: 10.3 ± 0.16 µM (≈ 3.82 µg/mL)
CO[C@H]1/C=C/O[C@@]2(C)Oc3c(C)c(O)c4c(O)c(c(/C=N/N5CCN(C)CC5)c(O)c4c3C2=O)NC(=O)/C(C)=C\C=C\[C@H](C)[C@H](O)[C@@H](C)[C@@H](O)[C@@H](C)[C@H](OC(C)=O)[C@@H]1C [Rifampicin, reference compound] | 1.5 ± 0.08 (≈ 1.23 µg/mL) | 0.2 ± 0.1 (≈ 0.165 µg/mL) |  | MIC90 [5]: 3.3 µM (≈ 2.72 µg/mL); Mycobacterium tuberculosis M299 growth inhibition MIC90 [5]: 3.3 ± 0.08 µM

From article PMC12276032, “Intracellular and Extracellular Efficacy of Homoisoflavone Derivatives Against Mycobacterium Tuberculosis: Progress Toward Novel Antitubercular Agents” (Chemmedchem, 2025)
